The first assay concerns the target T1, human NEP (Homo sapiens, UniProt P08473).
T1 construct: purchased R&D Systems, Minneapolis, Minn; 1182-ZN
Kind of assay: In vitro enzyme inhibition assay at human NEP (fluorogenic peptide substrate). It is filed as biochemical. The settings on record: recombinant human NEP; substrate Mca-D-Arg-Arg-Leu-Dap-(Dnp)-OH 10 μM; 37° C.; values given as ranges. The procedure, abridged:
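Recombinant human NEP pre-incubated 30 min at 37 °C with compound (10 μM to 20 pM), then 10 μM Mca-D-Arg-Arg-Leu-Dap-(Dnp)-OH in 50 mM HEPES pH 7.5, 100 mM NaCl, 0.01% Tween-20, 10 μM ZnSO4. Stopped after 20 min with acetic acid, fluorescence read at 320/405 nm; Ki from nonlinear fit, reported as pKi.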
T1 sequence (P08473 whole entry): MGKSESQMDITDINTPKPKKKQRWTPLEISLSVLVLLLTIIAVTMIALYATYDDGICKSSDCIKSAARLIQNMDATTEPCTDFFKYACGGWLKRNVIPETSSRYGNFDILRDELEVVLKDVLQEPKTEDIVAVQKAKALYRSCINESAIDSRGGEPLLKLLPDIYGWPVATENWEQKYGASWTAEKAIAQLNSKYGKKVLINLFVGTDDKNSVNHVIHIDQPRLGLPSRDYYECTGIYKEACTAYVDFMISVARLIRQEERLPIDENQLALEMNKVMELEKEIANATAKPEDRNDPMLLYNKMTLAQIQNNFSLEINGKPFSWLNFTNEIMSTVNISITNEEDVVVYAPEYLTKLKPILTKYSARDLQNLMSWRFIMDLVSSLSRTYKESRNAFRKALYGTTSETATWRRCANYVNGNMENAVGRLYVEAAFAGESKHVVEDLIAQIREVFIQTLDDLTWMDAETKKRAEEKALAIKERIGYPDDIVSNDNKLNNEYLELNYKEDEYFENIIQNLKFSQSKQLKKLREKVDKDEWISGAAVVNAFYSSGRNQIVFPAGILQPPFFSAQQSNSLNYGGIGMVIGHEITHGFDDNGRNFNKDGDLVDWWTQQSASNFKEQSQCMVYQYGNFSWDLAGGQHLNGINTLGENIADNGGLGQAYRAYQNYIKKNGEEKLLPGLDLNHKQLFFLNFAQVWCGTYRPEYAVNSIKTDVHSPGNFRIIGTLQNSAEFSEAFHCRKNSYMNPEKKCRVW
Take `COCCN(C)C(=O)c1cc(C(=O)N[C@H](Cc2ccccc2C(F)(F)F)[C@@H](O)C(=O)O)n[nH]1` [Example 6-9]: the “pKi values at human NEP” value is listed as 7.0-7.9.

The assay is the same for the next values; noted with them: recombinant human NEP; substrate Mca-D-Arg-Arg-Leu-Dap-(Dnp)-OH 10 μM; 37° C.; values given as ranges; read-out: pKi values at human NEP (converted).
For the molecule `COc1ccccc1-c1cc(C(=O)N[C@H](Cc2ccccc2Cl)[C@@H](O)C(=O)O)[nH]n1` [Example 3-4, (2R,3R)-4-(2-Chloro-phenyl)-2-hydroxy-3-{[5-(2-methoxy-phenyl)-2H-pyrazole-3-carbonyl]-amino}-butyric acid], the Ki was 0.0126 to 0.1 µM.
Take `CC(=O)c1cc(C(=O)N[C@H](Cc2ccccc2Cl)[C@@H](O)C(=O)O)[nH]n1` [Example 3-5, (2R,3R)-3-[(5-Acetyl-2H-pyrazole-3-carbonyl)-amino]-4-(2-chloro-phenyl)-2-hydroxy-butyric acid]: the Ki is 0.0126 to 0.1 µM.
The same measure, in the same setting: the value for `COc1c(F)c(F)c(Cn2nc(C(C)=O)cc2C(=O)N[C@H](Cc2ccccc2Cl)[C@@H](O)C(=O)O)c(F)c1F` [Example 3-6, (2R,3R)-3-{[5-Acetyl-2-(2,3,5,6-tetrafluoro-4-methoxy-benzyl)-2H-pyrazole-3-carbonyl]-amino}-4-(2-chloro-phenyl)-2-hydroxy-butyric acid] was at most 0.001 µM; that for `O=C(N[C@H](Cc1ccccc1Cl)[C@@H](O)C(=O)O)c1cc(-c2cc(Cl)ccc2Cl)n[nH]1` [Example 3-7, (2R,3R)-4-(2-Chloro-phenyl)-3-{[5-(2,5-dichloro-phenyl)-2H-pyrazole-3-carbonyl]-amino}-2-hydroxy-butyric acid] was 0.00126 to 0.01 µM; that for `O=C(N[C@H](Cc1ccccc1Cl)[C@@H](O)C(=O)O)c1cc(-c2ccc(Cl)cc2Cl)n[nH]1` [Example 3-8, (2R,3R)-4-(2-Chloro-phenyl)-3-{[5-(2,4-dichloro-phenyl)-2H-pyrazole-3-carbonyl]-amino}-2-hydroxy-butyric acid] was 0.00126 to 0.01 µM.
`COc1ccc(Cn2cc(C(=O)N[C@H](Cc3ccccc3Cl)[C@@H](O)C(=O)O)cn2)c(F)c1F` [Example 4-1, (2R,3R)-4-(2-Chloro-phenyl)-3-{[1-(2,3-difluoro-4-methoxy-benzyl)-1H-pyrazole-4-carbonyl]-amino}-2-hydroxy-butyric acid]: the Ki is 0.00126 to 0.01 µM.
Take `COc1ccc(Cn2nc(C(=O)N[C@H](Cc3ccccc3C(F)(F)F)[C@@H](O)C(=O)O)cc2C(=O)O)cc1` [Example 5, 5-[(1R,2R)-2-Carboxy-2-hydroxy-1-(2-trifluoromethylbenzyl)-ethylcarbamoyl]-2-(4-methoxybenzyl)-2H-pyrazole-3-carboxylic Acid]: the Ki was 0.00126 to 0.01 µM.
Take `O=C(N[C@H](Cc1ccccc1C(F)(F)F)[C@@H](O)C(=O)O)c1cc(C(=O)O)n(Cc2ccc(F)cc2)n1` [Example 6-1, 5-[(1R,2R)-2-Carboxy-2-hydroxy-1-(2-trifluoromethyl-benzyl)-ethylcarbamoyl]-2-(4-fluoro-benzyl)-2H-pyrazole-3-carboxylic acid]: the Ki was 0.00126 to 0.01 µM.
Still for that read-out and setting: in the case of `O=C(N[C@H](Cc1ccccc1C(F)(F)F)[C@@H](O)C(=O)O)c1cc(C(=O)O)[nH]n1` [Example 6-2, 5-[(1R,2R)-2-Carboxy-2-hydroxy-1-(2-trifluoromethyl-benzyl)-ethylcarbamoyl]-2H-pyrazole-3-carboxylic acid] it was 0.00126 to 0.01 µM.
On the same count and under the same terms, in the case of `CC(C)CN(C)C(=O)c1cc(C(=O)N[C@H](Cc2ccccc2C(F)(F)F)[C@@H](O)C(=O)O)n[nH]1` [Example 6-3, (2R,3R)-2-Hydroxy-3-{[5-(isobutyl-methyl-carbamoyl)-1H-pyrazole-3-carbonyl]-amino}-4-(2-trifluoromethyl-phenyl)-butyric acid] it was 0.0126 to 0.1 µM; in that of `O=C(N[C@H](Cc1ccccc1C(F)(F)F)[C@@H](O)C(=O)O)c1cc(C(=O)NCCc2c[nH]cn2)[nH]n1` [Example 6-4, (2R,3R)-2-Hydroxy-3-({5-[2-(1H-imidazol-4-yl)-ethylcarbamoyl]-1H-pyrazole-3-carbonyl}-amino)-4-(2-trifluoromethyl-phenyl)-butyric acid], 0.0126 to 0.1 µM.
As to `CNC(=O)c1cc(C(=O)N[C@H](Cc2ccccc2C(F)(F)F)[C@@H](O)C(=O)O)n[nH]1` [Example 6-5, (2R,3R)-2-Hydroxy-3-[(5-methylcarbamoyl-1H-pyrazole-3-carbonyl)-amino]-4-(2-trifluoromethyl-phenyl)-butyric acid], the Ki is 0.0126 to 0.1 µM.
As for `O=C(N[C@H](Cc1ccccc1C(F)(F)F)[C@@H](O)C(=O)O)c1cc(C(=O)NC2CC2)[nH]n1` [Example 6-6, (2R,3R)-3-[(5-Cyclopropylcarbamoyl-1H-pyrazole-3-carbonyl)-amino]-2-hydroxy-4-(2-trifluoromethyl-phenyl)-butyric acid], the Ki was 0.0126 to 0.1 µM.
Still for that read-out and setting: in the case of `CN(C)C(=O)c1cc(C(=O)N[C@H](Cc2ccccc2C(F)(F)F)[C@@H](O)C(=O)O)n[nH]1` [Example 6-7, (2R,3R)-3-[(5-Dimethylcarbamoyl-1H-pyrazole-3-carbonyl)-amino]-2-hydroxy-4-(2-trifluoromethyl-phenyl)-butyric acid] it was 0.00126 to 0.01 µM.
Regarding `O=C(N[C@H](Cc1ccccc1C(F)(F)F)[C@@H](O)C(=O)O)c1cc(C(=O)N2CCC(O)CC2)[nH]n1` [Example 6-8, (2R,3R)-2-Hydroxy-3-{[5-(4-hydroxy-piperidine-1-carbonyl)-1H-pyrazole-3-carbonyl]-amino}-4-(2-trifluoromethyl-phenyl)-butyric acid], the Ki is 0.0126 to 0.1 µM.
For `O=C(N[C@H](Cc1ccccc1C(F)(F)F)[C@@H](O)C(=O)O)c1cc(C(=O)N2CC[C@@H](O)C2)[nH]n1` [Example 6-10, (2R,3R)-2-Hydroxy-3-{[5-((R)-3-hydroxy-pyrrolidine-1-carbonyl)-1H-pyrazole-3-carbonyl]-amino}-4-(2-trifluoromethyl-phenyl)-butyric acid], the Ki was 0.00126 to 0.01 µM.
The same measure, in the same setting: the value for `O=C(N[C@H](Cc1ccccc1C(F)(F)F)[C@@H](O)C(=O)O)c1cc(C(=O)N2CC[C@H](C(=O)O)C2)[nH]n1` [Example 6-11, (S)-1-{5-[(1R,2R)-2-Carboxy-2-hydroxy-1-(2-trifluoromethyl-benzyl)-ethylcarbamoyl]-2H-pyrazole-3-carbonyl}-pyrrolidine-3-carboxylic acid] was 0.00126 to 0.01 µM; that for `O=C(N[C@H](Cc1ccccc1)[C@@H](O)C(=O)O)c1cc(C(=O)O)n(Cc2ccc(Cl)cc2F)n1` [Example 8-1, 5-((1R,2R)-1-Benzyl-2-carboxy-2-hydroxy-ethylcarbamoyl)-2-(4-chloro-2-fluoro-benzyl)-2H-pyrazole-3-carboxylic acid] was 0.00126 to 0.01 µM.
Still for that read-out and setting: in the case of `O=C(N[C@H](Cc1ccccc1)[C@@H](O)C(=O)O)c1cc(C(=O)O)n(Cc2c(F)cc(Cl)cc2F)n1` [Example 8-3, 5-((1R,2R)-1-Benzyl-2-carboxy-2-hydroxy-ethylcarbamoyl)-2-(4-chloro-2,6-difluoro-benzyl)-2H-pyrazole-3-carboxylic acid] it was 0.00126 to 0.01 µM; in that of `O=C(N[C@H](Cc1ccccc1)[C@@H](O)C(=O)O)c1cc(C(=O)O)n(Cc2cccc(F)c2)n1` [Example 8-4, 5-((1R,2R)-1-Benzyl-2-carboxy-2-hydroxy-ethylcarbamoyl)-2-(3-fluoro-benzyl)-2H-pyrazole-3-carboxylic acid], 0.00126 to 0.01 µM.
For `COc1cccc(Cn2nc(C(=O)N[C@H](Cc3ccccc3)[C@@H](O)C(=O)O)cc2C(=O)O)c1` [Example 8-5, 5-((1R,2R)-1-Benzyl-2-carboxy-2-hydroxy-ethylcarbamoyl)-2-(3-methoxy-benzyl)-2H-pyrazole-3-carboxylic acid], the Ki is 0.00126 to 0.01 µM.

Values taken from patent US8993752B2, “Neprilysin inhibitors” (Theravance Biopharma R&D IP, LLC, priority 2011, dated 2015).
